Measured values published in patent US5179089A, “Isoquinoline compounds, compositions and use” (Chinoin Gyogyszer es Vegyeszeti Termekek Gyara Rt., priority 1990, dated 1993).
Read-outs that look alike come from different tables or passages of the source.

Legend:
[1] = tested on: histamine-induced constriction of isolated tracheal smooth muscle of guinea pig; experiment: Inhibition of the histamine-induced constriction of isolated tracheal smooth muscle of guinea pig; conditions: Cavia porcellus, 0.25 h, isolated guinea pig trachea, read-out: Inhibition of the histamine-induced constriction of isolated tracheal smooth muscle of guinea pig pd'2 (converted)
Description: I Study on the Effects Against Spasmogenic Mediators [modified method of J. C. […] The investigation on isolated organs were carried out as follows. OHF Lt/R9 guinea pigs of both sexes weighing 300 to 400 g each were anaesthetized by pentobarbital. Their trachea was removed and sectioned in the opposite side to the site of smooth muscle in longitudinal direction. Subsequently, a strip-like preparation was obtained by […] cutting. […] A rest load of 0.5 g was used. Several washings were carried out during the incubation period of 30 minutes. The change in the tension of the tracheal smooth muscle was followed by using an isometric Grass FT-03 type tensiometer sensor device. A washing was made following the cumulative dose series of the given mediator (e.g. histamine). After reaching the base line, by 15 minutes after administration of the given concentration of the inhibitory (antiasthmatic) substance to be tested, the next cumulative dose series of the mediator was administered. In the case of an inhibitory action, the strength of effect, following the second dose series of the mediator, was […] in comparison to that of the first (control) series. For characterization of strength of the competitive antagonistic effect the pA2 value was determined according to the method of […] A pd'2 value was calculated [J. M. Van Rossum: Arch. Int.

[2] = tested on: active local anaphylactic reaction; experiment: Effect influencing the active local anaphylactic reaction on rat; format: in vivo, rat (female OFA); conditions: oral dose of 50 mg/kg, 30th minute after induction
Description: 1) The effect influencing the active local anaphylactic reaction was measured according to the method of M. Koltay [Arch. Allergy App. Immun. 71, 181 (1983)].
Female OFA rats weighing 160 to 180 g each were sensitized by bovine serum albumin (BSA) adsorbed to 50 μg of Al(OH)3 gel together with the simultaneous administration of Bordatella pertussis vaccine.
The anaphylactic reaction was elicited by injecting 100 μg of BSA into the right hind paw plant in the 14th day.
The measurements were carried out before and 30 minutes after eliciting the reaction. The animals were orally treated with the compound to be tested 1 hour before the injection of BSA. The results were expressed as percentage inhibition compared to the control group (average %±S.E.M.).

[3] = tested on: carrageenin-induced rat paw edema; experiment: Carrageenin-induced rat paw edema test; format: in vivo, rat (female CFY); conditions: Rattus norvegicus, po, 50 mg/kg (p.o.), read-out: Percentage of the protective effect
Description: Proc. Soc. Exp. Med. 111, 544 (1962)]. Female CFY rats weighing 100 to 120 g each were used after starvation for 24 hours. The inflammation was induced by injecting 0.1 ml of 1% carrageenin solution into the right hind paw plant. The severity of inflammation was determined by using an Ugo-Basile type plethysmometer. The measurement was carried out before and 1.5, 3 and 4.5 hours after induction of the inflammation. The animals were orally treated with the substance to be tested 1 hour before administration of carrageenin. The effect was expressed as percentage inhibition related to the control group.

[4] = tested on: dextran-induced rat paw edema; experiment: Dextran-induced rat paw edema test; format: in vivo; conditions: 50 mg/kg (p.o.)
Description: 3) Dextran-induced rat paw edema test The method of S. Gourvaisier and R. Ducrot [Arch. Int. Pharmacodyn. Ther. 102, 33 (1955)] was employed. The method described for the carrageenin edema test was followed, except that the measurements were carried out 30, 60, 90, 120 and 180 minutes after induction of the inflammation.

LD50 on rat = conditions: in vivo, iv
LD50 on mouse = conditions: in vivo

## CCOc1cc2c(cc1OCC)C(=C(C#N)SCC(O)CN1CCOCC1)NCC2 (stereo not shown) [Example 18, 2-(6,7-diethoxy-1,2,3,4-tetrahydro-1-isoquinolinylidene)-2-[2-hydroxy-3-(4-morpholinyl)propyl]mercaptoacetonitrile]
[1]
  IC50: 123 nM
[2]
  Percentage of inhibition of the active local anaphylactic reaction: -31%
[3]; 1.5 hours
  change in vivo at 50 mg/kg: -35.8%
[3]; 3 hours
  change in vivo at 50 mg/kg: -29.3%
[3]; 4.5 hours
  change in vivo at 50 mg/kg: -28.4%
[4]; 30 minutes
  Percentage of inhibition: 29.8%
[4]; 60 minutes
  Percentage of inhibition: 38.7%
[4]; 90 minutes
  Percentage of inhibition: 30.4%
[4]; 120 minutes
  Percentage of inhibition: 26.3%
[4]; 180 minutes
  Percentage of inhibition: 28.4%
LD50 on rat; female rat
  LD50: 133 mg/kg
LD50 on rat; male rat
  LD50: 91.4 mg/kg
LD50 on mouse; iv, female mouse, read-out: LD50 i.v.
  LD50: 150 mg/kg
LD50 on mouse; iv, male mouse, read-out: LD50 i.v.
  LD50: 166 mg/kg
LD50 on mouse; po, female mouse, read-out: LD50 p.o.
  LD50: 1030 mg/kg
LD50 on mouse; po, male mouse, read-out: LD50 p.o.
  LD50: 1200 mg/kg
